Measurements published in the supplement of paper PMC10307832.

Key:
Assay in all cases: relative viability (nuclei count vs DMSO), 5 days (fraction); higher = more cells survive
[1] = compound: C[C@H]([C@@H](C(=O)N)NC(=O)[C@@H]1CSSC[C@@H](C(=O)N[C@H](C(=O)N[C@@H](C(=O)N[C@H](C(=O)N1)CCCCN)CC2=CNC3=CC=CC=C32)CC4=CC=C(C=C4)O)NC(=O)[C@@H](CC5=CC=CC=C5)N)O [CAP-232] + CC(=O)c1c(C)c2cnc(Nc3ccc(N4CCNCC4)cn3)nc2n(C2CCCC2)c1=O [Palbociclib] (partner 0.5 µM)
How it was run: (§1)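 Relative viability equals treated-well nuclei counts divided by vehicle-well nuclei counts. Counts came from 4× images of lung cancer cell lines grown in 1536-well plates for 5 days after pin-tool dosing on the day after seeding. Dosing used one drug alone or a fixed anchor-drug dose plus five library-drug doses (not always all listed) in √10 steps, and values are medians of duplicate plates.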

[2] = compound: C[C@H]([C@@H](C(=O)N)NC(=O)[C@@H]1CSSC[C@@H](C(=O)N[C@H](C(=O)N[C@@H](C(=O)N[C@H](C(=O)N1)CCCCN)CC2=CNC3=CC=CC=C32)CC4=CC=C(C=C4)O)NC(=O)[C@@H](CC5=CC=CC=C5)N)O [CAP-232] + CC(C)C[C@H](NC(=O)[C@H](Cc1ccccc1)NC(=O)c1cnccn1)B(O)O [Bortezomib] (partner 0.002 µM)
How it was run: as §1

[3] = compound: C[C@H]([C@@H](C(=O)N)NC(=O)[C@@H]1CSSC[C@@H](C(=O)N[C@H](C(=O)N[C@@H](C(=O)N[C@H](C(=O)N1)CCCCN)CC2=CNC3=CC=CC=C32)CC4=CC=C(C=C4)O)NC(=O)[C@@H](CC5=CC=CC=C5)N)O [CAP-232] + CS(=O)(=O)CCNCc1ccc(-c2ccc3ncnc(Nc4ccc(OCc5cccc(F)c5)c(Cl)c4)c3c2)o1 [Lapatinib] (partner 2 µM)
How it was run: as §1

[4] = compound: C[C@H]([C@@H](C(=O)N)NC(=O)[C@@H]1CSSC[C@@H](C(=O)N[C@H](C(=O)N[C@@H](C(=O)N[C@H](C(=O)N1)CCCCN)CC2=CNC3=CC=CC=C32)CC4=CC=C(C=C4)O)NC(=O)[C@@H](CC5=CC=CC=C5)N)O [CAP-232] + CS(=O)(=O)N1CCN(Cc2cc3nc(-c4cccc5[nH]ncc45)nc(N4CCOCC4)c3s2)CC1 [Pictilisib] (partner 1 µM)
How it was run: as §1

[5] = compound: C[C@H]([C@@H](C(=O)N)NC(=O)[C@@H]1CSSC[C@@H](C(=O)N[C@H](C(=O)N[C@@H](C(=O)N[C@H](C(=O)N1)CCCCN)CC2=CNC3=CC=CC=C32)CC4=CC=C(C=C4)O)NC(=O)[C@@H](CC5=CC=CC=C5)N)O [CAP-232] + Nc1nc2[nH]cc(CCc3ccc(C(=O)N[C@@H](CCC(=O)O)C(=O)O)cc3)c2c(=O)[nH]1 [Pemetrexed] (partner 0.2 µM)
How it was run: as §1

In the case of HCC-827, the relative viability ([1]; first compound 0.4 µM) is reported as 0.423, the relative viability ([1]; first compound 1.265 µM) is reported as 0.498 and the relative viability ([1]; first compound 4 µM) is reported as 0.461. For the same cell line, the relative viability ([1]; first compound 12.65 µM) was 0.514, the relative viability ([2]; first compound 0.4 µM) was 1.19 and the relative viability ([2]; first compound 1.265 µM) was 1.06. The relative viability ([2]; first compound 4 µM) was 1.03, the relative viability ([2]; first compound 12.65 µM) was 1 and the relative viability ([3]; first compound 0.4 µM) was 0.224. For the same cell line, the relative viability ([3]; first compound 1.265 µM) was 0.175, the relative viability ([3]; first compound 4 µM) was 0.177 and the relative viability ([3]; first compound 12.65 µM) was 0.177. For the same cell line, the relative viability ([4]; first compound 0.4 µM) was 0.842, the relative viability ([4]; first compound 1.265 µM) was 1.1 and the relative viability ([4]; first compound 4 µM) was 0.896. For the same cell line, the relative viability ([4]; first compound 12.65 µM) was 1.05, the relative viability ([5]; first compound 0.4 µM) was 0.266 and the relative viability ([5]; first compound 1.265 µM) was 0.277. It also gave a relative viability ([5]; first compound 4 µM) of 0.222 and a relative viability ([5]; first compound 12.65 µM) of 0.231.

With HOP-62 the relative viability ([1]; first compound 0.4 µM) was 0.491, the relative viability ([1]; first compound 1.265 µM) was 0.42 and the relative viability ([1]; first compound 4 µM) was 0.436. For the same cell line, the relative viability ([1]; first compound 12.65 µM) was 0.386, the relative viability ([2]; first compound 0.4 µM) was 0.924 and the relative viability ([2]; first compound 4 µM) was 1.11. The relative viability ([2]; first compound 12.65 µM) was 0.699, the relative viability ([3]; first compound 0.4 µM) was 1.06 and the relative viability ([3]; first compound 4 µM) was 1.33. For the same cell line, the relative viability ([3]; first compound 12.65 µM) was 0.996, the relative viability ([4]; first compound 0.4 µM) was 0.575 and the relative viability ([4]; first compound 4 µM) was 0.741. The relative viability ([4]; first compound 12.65 µM) was 0.84, the relative viability ([5]; first compound 0.4 µM) was 0.331 and the relative viability ([5]; first compound 1.265 µM) was 0.322. It also gave a relative viability ([5]; first compound 4 µM) of 0.341 and a relative viability ([5]; first compound 12.65 µM) of 0.295.

LC-2-ad gave a relative viability ([1]; first compound 0.4 µM) of 0.478, a relative viability ([1]; first compound 1.265 µM) of 0.517 and a relative viability ([1]; first compound 4 µM) of 0.473. For the same cell line, the relative viability ([1]; first compound 12.65 µM) was 0.513, the relative viability ([2]; first compound 0.4 µM) was 1.05 and the relative viability ([2]; first compound 1.265 µM) was 1.01. The relative viability ([2]; first compound 4 µM) was 1.11, the relative viability ([2]; first compound 12.65 µM) was 1 and the relative viability ([3]; first compound 0.4 µM) was 1.07. The relative viability ([3]; first compound 1.265 µM) was 0.891, the relative viability ([3]; first compound 4 µM) was 0.949 and the relative viability ([3]; first compound 12.65 µM) was 1.09. It also gave a relative viability ([4]; first compound 0.4 µM) of 0.404, a relative viability ([4]; first compound 1.265 µM) of 0.409 and a relative viability ([4]; first compound 4 µM) of 0.63. It also gave a relative viability ([4]; first compound 12.65 µM) of 0.458, a relative viability ([5]; first compound 0.4 µM) of 0.278 and a relative viability ([5]; first compound 1.265 µM) of 0.269. For the same cell line, the relative viability ([5]; first compound 4 µM) was 0.287 and the relative viability ([5]; first compound 12.65 µM) was 0.228.

LCLC-97TM1 was tested, and the relative viability ([1]; first compound 0.4 µM) was 0.243, the relative viability ([1]; first compound 1.265 µM) was 0.22 and the relative viability ([1]; first compound 4 µM) was 0.187. For the same cell line, the relative viability ([1]; first compound 12.65 µM) was 0.248, the relative viability ([2]; first compound 0.4 µM) was 0.83 and the relative viability ([2]; first compound 1.265 µM) was 0.765. It also gave a relative viability ([2]; first compound 4 µM) of 0.856, a relative viability ([2]; first compound 12.65 µM) of 0.555 and a relative viability ([3]; first compound 0.4 µM) of 1.13. For the same cell line, the relative viability ([3]; first compound 1.265 µM) was 1.15, the relative viability ([3]; first compound 4 µM) was 1.05 and the relative viability ([3]; first compound 12.65 µM) was 0.946. The relative viability ([4]; first compound 0.4 µM) was 0.217, the relative viability ([4]; first compound 1.265 µM) was 0.193 and the relative viability ([4]; first compound 4 µM) was 0.232. It also gave a relative viability ([4]; first compound 12.65 µM) of 0.193, a relative viability ([5]; first compound 0.4 µM) of 0.192 and a relative viability ([5]; first compound 1.265 µM) of 0.16. For the same cell line, the relative viability ([5]; first compound 4 µM) was 0.167 and the relative viability ([5]; first compound 12.65 µM) was 0.183.

Work on LOU-NH91 yielded a relative viability ([1]; first compound 0.4 µM) of 0.525, a relative viability ([1]; first compound 1.265 µM) of 0.482 and a relative viability ([1]; first compound 4 µM) of 0.522. For the same cell line, the relative viability ([1]; first compound 12.65 µM) was 0.39, the relative viability ([2]; first compound 0.4 µM) was 0.528 and the relative viability ([2]; first compound 1.265 µM) was 0.458. The relative viability ([2]; first compound 4 µM) was 0.463, the relative viability ([2]; first compound 12.65 µM) was 0.549 and the relative viability ([3]; first compound 0.4 µM) was 0.781. For the same cell line, the relative viability ([3]; first compound 1.265 µM) was 0.771, the relative viability ([3]; first compound 4 µM) was 0.821 and the relative viability ([3]; first compound 12.65 µM) was 0.639. It also gave a relative viability ([4]; first compound 0.4 µM) of 0.479, a relative viability ([4]; first compound 1.265 µM) of 0.512 and a relative viability ([4]; first compound 4 µM) of 0.501. It also gave a relative viability ([4]; first compound 12.65 µM) of 0.438, a relative viability ([5]; first compound 0.4 µM) of 0.473 and a relative viability ([5]; first compound 1.265 µM) of 0.378. For the same cell line, the relative viability ([5]; first compound 4 µM) was 0.392 and the relative viability ([5]; first compound 12.65 µM) was 0.275.

LU99A was tested, and the relative viability ([1]; first compound 0.4 µM) was 0.392, the relative viability ([1]; first compound 1.265 µM) was 0.375 and the relative viability ([1]; first compound 4 µM) was 0.407. It also gave a relative viability ([1]; first compound 12.65 µM) of 0.505, a relative viability ([2]; first compound 0.4 µM) of 1.14 and a relative viability ([2]; first compound 1.265 µM) of 1.1. For the same cell line, the relative viability ([2]; first compound 4 µM) was 1.18, the relative viability ([2]; first compound 12.65 µM) was 1.05 and the relative viability ([3]; first compound 0.4 µM) was 0.964. For the same cell line, the relative viability ([3]; first compound 1.265 µM) was 1.03, the relative viability ([3]; first compound 4 µM) was 1.13 and the relative viability ([3]; first compound 12.65 µM) was 1.05. For the same cell line, the relative viability ([4]; first compound 0.4 µM) was 0.376, the relative viability ([4]; first compound 1.265 µM) was 0.307 and the relative viability ([4]; first compound 4 µM) was 0.328. For the same cell line, the relative viability ([4]; first compound 12.65 µM) was 0.292, the relative viability ([5]; first compound 0.4 µM) was 0.181 and the relative viability ([5]; first compound 1.265 µM) was 0.139. The relative viability ([5]; first compound 4 µM) was 0.182 and the relative viability ([5]; first compound 12.65 µM) was 0.177.

Cell Line LXF-289 has a relative viability ([1]; first compound 0.4 µM) of 0.611, a relative viability ([1]; first compound 1.265 µM) of 0.625 and a relative viability ([1]; first compound 4 µM) of 0.58. The relative viability ([1]; first compound 12.65 µM) was 0.62, the relative viability ([2]; first compound 0.4 µM) was 1.06 and the relative viability ([2]; first compound 1.265 µM) was 0.976. It also gave a relative viability ([2]; first compound 4 µM) of 0.975, a relative viability ([2]; first compound 12.65 µM) of 1 and a relative viability ([3]; first compound 0.4 µM) of 0.952. The relative viability ([3]; first compound 1.265 µM) was 0.903, the relative viability ([3]; first compound 4 µM) was 0.914 and the relative viability ([3]; first compound 12.65 µM) was 0.953. The relative viability ([4]; first compound 0.4 µM) was 0.817, the relative viability ([4]; first compound 1.265 µM) was 0.768 and the relative viability ([4]; first compound 4 µM) was 0.755. It also gave a relative viability ([4]; first compound 12.65 µM) of 0.798, a relative viability ([5]; first compound 0.4 µM) of 1.05 and a relative viability ([5]; first compound 1.265 µM) of 0.839. For the same cell line, the relative viability ([5]; first compound 4 µM) was 0.904 and the relative viability ([5]; first compound 12.65 µM) was 0.958.
